Data reported in PMC10077545, “Exploration of Antiproliferative Activity and Apoptosis Induction of New Nickel(II) Complexes Encompassing Carbazole Ligands” (ACS Omega, 2023).
Read-outs that look alike come from different tables or passages of the source.

Assays:
[1] = test system: human cervical carcinoma (HeLa); test: MTT assay, in vitro cell viability, HeLa; type: cell-based; settings: ± standard deviation
Experimental: (§1) To study the ability of the prepared ligands and the synthesized complexes in retarding the growth of cancer cell, the MTT assay was performed with human cervical carcinoma (HeLa), human colon carcinoma (HT-29), and non-cancerous L929 (fibroblast) cell lines. As a reference, cisplatin is also examined with all the cell lines for an incubation period of 24 h and as stated in Table 1.
(§2) 2. Experimental Procedures […]
(§3) The cell lines HeLa, HT-29, and L929 were collected from ATCC and the stock cells were cultured in DMEM/ F12 enriched with 10% inactivated Fetal Bovine Serum (FBS), penicillin (100 IU/ml), streptomycin (100 µg/ml) in a humidified atmosphere of 5% carbon dioxide at 37 °C until confluent. The cells were dissociated with cell dissociating solution (0.2 % trypsin, 0.02 % EDTA, 0.05 % glucose in PBS). The viability of the cells have been checked and centrifuged. Further, 50,000 cells /well of […] was seeded in a 96 well plate and incubated for 24 hours at 37 °C, 5 % carbon dioxide incubator.
(§4) The monolayer cell culture has been trypsinized and the cell count was altered to […] using respective media comprising 10% FBS. 100 µL of the diluted cell suspension (50,000 cells/well) was added to each well of the 96 well microtiter plate. When a partial monolayer formed after 24 hours, the supernatant was swiped off and the monolayer has been washed with the medium. 100 µL of various concentrations of complexes have been added on to the partial monolayer in microtiter plates. Then, the […]
(§5) incubation, the test solutions in the wells have been discarded and 100 µL of MTT (5 mg/10 ml of MTT in PBS) was added to each well. The plates have been incubated for four hours at 37 °C in 5% carbon dioxide atmosphere. The supernatant has been removed and 100 µL of DMSO was applied to dissolve the formed formazan. The absorbance was recorded using a microplate reader at 590 nm. The % growth inhibition has been determined using the […]
(§6) Cell viability (%) = (Absorbance of each well/ Absorbance of control well) × 100 […]
(§7) Hoechst 33342 staining method
(§8) 5 × 10^5 HeLa cells have been incubated with IC50 concentration of the complex 4 for 24 hours in a 6-well culture plate and have been fixed with 4% paraformaldehyde followed by permeabilization with 0.1% Triton X-100. Cells were then stained with 50 μg /mL Hoechst 33342 for 30 min at ambient temperature. The cells undergoing apoptosis were observed and visualized by epifluorescence microscope (Carl Zeiss, Germany).

[2] = test system: human colon carcinoma (HT-29); test: MTT assay, in vitro cell viability, HT-29; type: cell-based; settings: ± standard deviation
Experimental: as §1, §2, §3, §4, §5, §6, §7, §8

[3] = test system: non-cancerous L929 (fibroblast) cell lines; test: MTT assay, in vitro cell viability, L929; type: cell-based; settings: ± standard deviation
Experimental: as §1, §2, §3, §4, §5, §6, §7, §8

[4] = Partition coefficient (log P), shake-flask, n-octanol-water; type: physicochemical
Description: The permeability of the drug molecules into a lipid cytomembrane is a prime initiative for designing drugs and its development. The main properties like absorption, transportation, and expulsion of the drugs take control over the chief pharmacokinetic properties. Accordingly, we resolve the permeability of all the complexes with the help of calculated log P values using a n-octanol–water system. Based on the solubility of the complexes in aqueous and organic phases, the log P values are determined.[22]−[24] […] Complexes 3 and 4 display higher permeability characters (log P value) due to the presence of halogen and electron-donating group, respectively. Additionally, the presence of the carbazole moiety in the complexes enhanced the lipophilicity.[25],[26]
2. Experimental Procedures
UV-visible time dependent spectral method has been used to examine the stability of the complexes. Complexes were dissolved in a minimum amount of 1% DMSO and then diluted with PBS buffer to 1×10−3 M concentration. The hydrolysis profiles of the complexes were monitored by their electronic spectra over 72 h.
Partition coefficients determination
The "shake-flask" technique was used to evaluate the lipophilicity of complexes 2 - 4 using octanol/water phase partitions. Double distilled water and analytical grade octanol (Sigma Aldrich) were used to produce octanol-saturated water and water-saturated octanol phases. Complexes 2−4 (1 mg/mL; ethanol/water) have been diluted to 2, 4, 6, 8, and 10 μg/mL in water and alternatively were diluted to 2, 4, 6, 8, and 10 μg/mL in octanol, respectively. Equal volumes (50/50) of the complexes in the proper concentrations […] have been shaken for 24 hours at ambient temperature. The organic and aqueous fractions have been separated and centrifuged when equilibrium was attained. Finally, UV-visible spectroscopy was used to determine the complex concentration in each phase. The concentration of the sample solution was used to calculate the partition coefficients (log P) by using the equation log P = log[(1−3)oct/(1−3)aq]. 4 […]

HeLa cancer cells [5] = test: ROS detection (DCFH-DA); type: cell-based, human; settings: IC50 concentration, 24 h, control 20 %
Description: ROS, like hydrogen peroxide, superoxide anion, and hydroxyl radical, are produced on mitochondrial oxidative metabolism along with cell’s reaction toward cytokines and bacterial invasion. At low levels of ROS, it could participate in cell signaling. Whereas, at higher levels they might damage (DNA and RNA) and engage in apoptosis via mitochondrial dysfunction.[32] The quantity of ROS is detected with the help of oxidant fluorescent dye. The nonpolar dye DCFH-DA turned out to be deacetylated and transformed into DCFH (polar) by intracellular esterases. However, DCFH is not identified using a microscope. […]
(§9) To quantify the intracellular ROS, 5 × 10^5 HeLa cells have been seeded on a 6-well plate comprising cover slip and incubated overnight for attachment. […]
(§10) Culture cells on cover slips in 6‐well cell culture plates at a density around 5 x 10^5 cells/mL overnight in an incubator (5% carbon dioxide, 37 °C). […] The cells were immediately examined under a fluorescent microscope (Olympus, CKX-53, Japan), and the proportion of dead cells was calculated in at least three randomly chosen microscopic fields. […]
(§11) HeLa ells have been seeded in a 6-well plate (10^5 cells/well)) and cultured at 37 °C for 24 hours. […] Finally, apoptosis induction has been assessed using a flow cytometer (SYSMEX, Japan), and the data have been analyzed by Flow Jo software. […]

HeLa cancer cells [6] = test: Mitochondrial membrane potential, JC-1 staining; type: cell-based, human; settings: IC50 concentration, 24 h
Experimental: The mitochondrial dysfunction-mediated apoptosis was assayed via ROS generation. After the mitochondrial impairment, the mitochondrial membrane potential (MMP) is reduced and the same was examined using JC-1 fluorescence dye. The dye is used to assay the MMP to determine mitochondrial viability. Proapoptotic factors and other apoptotic inducing features were produced by mitochondria, which serves to be a significant role for apoptosis. […] In the control group (Figure 7A), JC-1 accumulates and produces a red fluorescence correlating to a high MMP.
(§12) Reactive Oxygen Species (ROS) Assay
as §9, §10, §11

caspase-8 = test: Caspase activity assay, caspase-8 in HeLa cells; type: cell-based, human; settings: IC50 concentration, 12 and 24 h
Description: (§13) The apoptotic mode of cancer cell death was further substantiated by caspase activation by ELISA analysis. In eukaryotes, caspases(protease enzymes) play a significant role in induction, transduction, and amplification of intracellular apoptotic signals. Based on the amino acid composition, caspases are divided into three sub-families, namely, […], executioner, and mediator caspases.[37] Most importantly, the initiator and executioner caspases get involved in the apoptotic signaling cascade. Caspase-8 and -9 are the initiators of the extrinsic and intrinsic pathways of apoptosis, respectively. Both mechanisms converge in the activation of the executioner caspase-3.[38]
as §12, §9, §10
(§14) The caspase activity assay was determined by a chromogenic assay using caspase-3 (Calbiochem, Merck), caspase-8 and 9 (Chemicon International Inc.) colorimeter activity assay kits. […]

caspase-3 = test: Caspase activity assay, caspase-3 in HeLa cells; type: cell-based, human; settings: IC50 concentration, 12 and 24 h
Description: as §13, §12, §9, §10, §14

caspase-9 = test: Caspase activity assay, caspase-9 in HeLa cells; type: cell-based, human; settings: IC50 concentration, 12 and 24 h
Description: as §13, §12, §9, §10, §14

[7] = 24 h incubation, read-out: IC50 HeLa 24 h
[8] = 48 h incubation, read-out: IC50 HeLa 48 h
[9] = 24 h incubation, read-out: IC50 HT-29 24 h
[10] = 48 h incubation, read-out: IC50 HT-29 48 h
[11] = 24 h incubation, read-out: IC50 L929 24 h
[12] = 48 h incubation, read-out: IC50 L929 48 h
[13] = n-octanol-water system, shake-flask, UV-visible
[14] = Homo sapiens, HeLa, 24 h incubation, read-out: IC50 HeLa 24 h
[15] = Homo sapiens, HeLa, 48 h incubation, read-out: IC50 HeLa 48 h
[16] = Homo sapiens, HT-29, 24 h incubation, read-out: IC50 HT-29 24 h
[17] = Homo sapiens, HT-29, 48 h incubation, read-out: IC50 HT-29 48 h
[18] = Mus musculus, L929, 24 h incubation, read-out: IC50 L929 24 h
[19] = Mus musculus, L929, 48 h incubation, read-out: IC50 L929 48 h

SMILES | IC50 [1, 7] [µM] | IC50 [1, 8] [µM] | IC50 [2, 9] [µM] | IC50 [2, 10] [µM] | IC50 [3, 11] [µM] | IC50 [3, 12] [µM] | log P [4, 13] | % of fluorescence intensity, reactive oxygen species (DCFH-DA) (HeLa cancer cells [5]) [%] | Mitochondrial membrane potential (JC-1 fluorescence) (HeLa cancer cells [6]) | Expression of caspase-8 (caspase-8) | Caspase-3 activity versus control cells (caspase-3) | Caspase-9 activity versus control cells (caspase-9) | IC50 [1, 14] [µM] | IC50 [1, 15] [µM] | IC50 [2, 16] [µM] | IC50 [2, 17] [µM] | IC50 [3, 18] [µM] | IC50 [3, 19] [µM] | log P [4]
c1ccc(C(=NN=C2CCCc3c2[nH]c2ccccc32)[O][Ni][O]C(=NN=C2CCCc3c2[nH]c2ccccc32)c2ccccc2)cc1 [complex 2, [Ni(L1)2]] | 49.3 ± 1.05 | 40.12 ± 0.09 | 68.59 ± 0.27 | 61.25 ± 0.47 | 248.1 ± 1.12 | 236.3 ± 1.45 | 0.86 ± 0.14 | – | – | – | – | – | – | – | – | – | – | – | –
COc1ccc(C(=NN=C2CCCc3c2[nH]c2ccccc32)[O][Ni][O]C(=NN=C2CCCc3c2[nH]c2ccccc32)c2ccc(OC)cc2)cc1 [complex 4, [Ni(L3)2]] | 43.39 ± 0.21 | 28.2 ± 0.32 | 57.42 ± 0.09 | 41.2 ± 1.28 | 275.8 ± 0.35 | 269.1 ± 1.1 | 1.95 ± 0.05 | 80 | decrease in MMP | efficiently upregulated | time-dependent increase | time-dependent increase | – | – | – | – | – | – | –
O=C(N/N=C1/CCCc2c1[nH]c1ccccc21)c1ccc(Cl)cc1 [L2] | – | – | – | – | – | – | – | – | – | – | – | – | > 100 | 86.2 ± 1.12 | > 100 | 94 ± 1.27 | > 100 | > 100 | –
COc1ccc(C(=O)N/N=C2/CCCc3c2[nH]c2ccccc32)cc1 [L3] | – | – | – | – | – | – | – | – | – | – | – | – | > 100 | 73.4 ± 0.82 | > 100 | 81.7 ± 1.09 | > 100 | > 100 | –
O=C(N/N=C1/CCCc2c1[nH]c1ccccc21)c1ccccc1 [L1] | – | – | – | – | – | – | – | – | – | – | – | – | > 100 | > 100 | > 100 | > 100 | > 100 | > 100 | –
Clc1ccc(C(=NN=C2CCCc3c2[nH]c2ccccc32)[O][Ni][O]C(=NN=C2CCCc3c2[nH]c2ccccc32)c2ccc(Cl)cc2)cc1 [complex 3, [Ni(L2)2]] | 45.4 ± 0.72 | 32.8 ± 1.19 | 59.2 ± 0.64 | 50.8 ± 1.11 | 253.1 ± 0.61 | 247.4 ± 0.28 | – | – | – | – | – | – | – | – | – | – | – | – | 1.57 ± 0.12
N.N.[Cl][Pt][Cl] [cisplatin, reference compound] | 28.04 ± 0.18 | 12.4 ± 1.81 | 34.3 ± 1.45 | 14.3 ± 1.57 | 146.5 ± 0.79 | 141.2 ± 0.37 | – | – | – | – | – | – | – | – | – | – | – | – | –
